From ChEMBL document CHEMBL1143211, “Inhibitors of proteases and amide hydrolases that employ an alpha-ketoheterocycle as a key enabling functionality” (Bioorg Med Chem, 2008)
pIC50, pKi: −log10 of the molar value. Values belong to the compound of their own block, whether it stands above or below them. Where a SMILES comes first, the peptide text is derived from it. [ ]: non-standard residue; d: D form. The star is where a group is joined. Pyrazinecarbonyl = O=C(c1cnccn1)*; Hyp = O=C(O)[C@@H]1C[C@@H](O)CN1; Abu = CC[C@H](N)C(=O)O; Bn = c1ccc(C*)cc1

Legend:
Chymase = Chymase (Homo sapiens, UniProt P23946)
[1] = Oral bioavailability in rat; format: ADME, organism-based; details: in vivo
[2] = Selectivity for human chymase over cathepsin G
[3] = Selectivity for human chymase over bovine chymotrypsin
Homo sapiens [4] = organism: Homo sapiens; test: Selectivity for human recombinant cathepsin S over human recombinant K
Homo sapiens [5] = organism: Homo sapiens; test: Selectivity for human recombinant cathepsin S over human cathepsin B
Homo sapiens [6] = organism: Homo sapiens; test: Selectivity for human recombinant cathepsin S over human recombinant L
Coagulation factor X = Coagulation factor X (Homo sapiens, UniProt P00742); test: Inhibition of human factor 10a
Prothrombin = Prothrombin (Homo sapiens, UniProt P00734); test: Inhibition of human alpha-thrombin
Coagulation factor XI = Coagulation factor XI (Homo sapiens, UniProt P03951)
[7] = Inhibition of HCV NS34A protease; set-up: species or system Hepacivirus hominis
[8] = Inhibition of post-glutamyl peptide hydrolase-like activity of human 20S proteasome
[9] = Inhibition of trypsin-like activity of human 20S proteasome
PC-3 = test: Growth inhibition of human PC3 cells; format: functional, cell-based
Canis familiaris = test: Antithrombotic activity in iv dosed dog areteriovenous shunt model assessed as inhibition of thrombus accumulation; format: functional; details: Canis lupus familiaris
Platelet = test: Antithrombotic activity assessed as inhibition of alpha-thrombin-induced human platelet aggregation; format: functional, cell-based
[10] = Inhibition of Trypanosoma cruzi prolyl endopeptidase Tc80
[11] = Inhibition of calpain 1 at 10 uM
Osteoclast = test: Inhibition of bovine bone resorption in rabbit osteoclasts; format: functional, cell-based; details: Oryctolagus cuniculus
[12] = Inhibition of Staphylococcus aureus methionine aminopeptidase
[13] = biological target: T1, Trifunctional purine biosynthetic protein adenosine-3 (Homo sapiens, UniProt P22102); test: Inhibition of human glycinamide ribonucleotide transformylase
T1 sequence (P22102 whole entry): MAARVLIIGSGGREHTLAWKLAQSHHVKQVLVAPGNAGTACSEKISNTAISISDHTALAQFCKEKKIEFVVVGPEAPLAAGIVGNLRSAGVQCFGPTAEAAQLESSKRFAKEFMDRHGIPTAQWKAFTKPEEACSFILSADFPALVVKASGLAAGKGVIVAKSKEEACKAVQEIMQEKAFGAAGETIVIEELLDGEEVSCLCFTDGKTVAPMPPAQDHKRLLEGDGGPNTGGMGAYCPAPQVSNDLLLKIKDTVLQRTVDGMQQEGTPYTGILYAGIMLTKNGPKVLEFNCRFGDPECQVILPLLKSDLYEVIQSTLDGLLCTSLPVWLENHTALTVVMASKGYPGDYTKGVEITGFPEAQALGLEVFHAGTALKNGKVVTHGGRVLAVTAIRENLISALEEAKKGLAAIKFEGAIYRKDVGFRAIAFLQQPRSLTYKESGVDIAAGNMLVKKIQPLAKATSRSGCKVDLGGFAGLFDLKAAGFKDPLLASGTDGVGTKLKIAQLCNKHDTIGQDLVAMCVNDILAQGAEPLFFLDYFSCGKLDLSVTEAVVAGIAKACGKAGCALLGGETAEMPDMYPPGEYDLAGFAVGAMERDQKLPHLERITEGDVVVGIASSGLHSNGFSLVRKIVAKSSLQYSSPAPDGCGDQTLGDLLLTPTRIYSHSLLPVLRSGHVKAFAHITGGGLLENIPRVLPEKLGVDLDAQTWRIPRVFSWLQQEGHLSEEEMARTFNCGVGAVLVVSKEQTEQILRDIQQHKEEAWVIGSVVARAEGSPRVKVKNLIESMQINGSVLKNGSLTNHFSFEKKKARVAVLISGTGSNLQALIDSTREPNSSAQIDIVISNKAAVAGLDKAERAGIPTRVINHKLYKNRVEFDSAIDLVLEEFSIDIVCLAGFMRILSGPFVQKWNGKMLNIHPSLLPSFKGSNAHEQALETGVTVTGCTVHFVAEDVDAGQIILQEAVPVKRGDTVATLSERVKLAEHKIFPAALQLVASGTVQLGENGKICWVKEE

Coagulation factor XII = Coagulation factor XII (Homo sapiens, UniProt P00748); test: Inhibition of factor 12a
Plasma kallikrein = Plasma kallikrein (Homo sapiens, UniProt P03952); test: Inhibition of kallikrein
Coagulation factor VII = Coagulation factor VII (Homo sapiens, UniProt P08709); test: Inhibition of human factor 7a
Chain of Coagulation factor VII (P08709 61-212 limits assumed): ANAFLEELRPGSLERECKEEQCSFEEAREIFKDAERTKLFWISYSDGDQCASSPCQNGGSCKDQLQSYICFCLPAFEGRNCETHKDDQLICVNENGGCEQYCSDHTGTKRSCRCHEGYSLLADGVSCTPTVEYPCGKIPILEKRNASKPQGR
Chain of Coagulation factor VII (P08709 213-466 limits assumed): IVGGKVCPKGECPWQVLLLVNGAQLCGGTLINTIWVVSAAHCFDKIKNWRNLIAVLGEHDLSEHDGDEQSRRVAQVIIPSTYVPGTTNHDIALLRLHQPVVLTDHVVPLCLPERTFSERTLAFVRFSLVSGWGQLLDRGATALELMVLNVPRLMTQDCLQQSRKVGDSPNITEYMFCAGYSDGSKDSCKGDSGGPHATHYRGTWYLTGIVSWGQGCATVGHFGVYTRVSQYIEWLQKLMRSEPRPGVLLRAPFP

Chain of Chymase (P23946 whole entry): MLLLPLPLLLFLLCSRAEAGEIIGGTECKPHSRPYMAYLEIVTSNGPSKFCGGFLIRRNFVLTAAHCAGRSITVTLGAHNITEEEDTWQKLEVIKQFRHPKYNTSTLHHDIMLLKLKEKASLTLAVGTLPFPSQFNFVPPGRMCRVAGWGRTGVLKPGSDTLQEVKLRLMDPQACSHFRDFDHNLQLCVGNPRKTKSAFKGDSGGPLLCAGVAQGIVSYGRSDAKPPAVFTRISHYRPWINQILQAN
Chain of Coagulation factor X (P00742 41-179 limits assumed): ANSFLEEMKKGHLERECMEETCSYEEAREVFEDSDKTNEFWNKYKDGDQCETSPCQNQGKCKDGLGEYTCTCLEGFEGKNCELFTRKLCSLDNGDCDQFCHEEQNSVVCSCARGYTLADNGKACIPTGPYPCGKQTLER
Chain of Coagulation factor X (P00742 235-488 limits assumed): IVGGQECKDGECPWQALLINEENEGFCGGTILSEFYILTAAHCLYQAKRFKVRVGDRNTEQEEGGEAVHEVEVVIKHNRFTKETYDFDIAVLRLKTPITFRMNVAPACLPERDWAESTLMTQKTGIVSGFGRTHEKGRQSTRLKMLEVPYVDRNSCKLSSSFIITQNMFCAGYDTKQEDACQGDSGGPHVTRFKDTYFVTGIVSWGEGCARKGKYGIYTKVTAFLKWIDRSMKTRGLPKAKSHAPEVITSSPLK
Chain of Coagulation factor XII (P00748 20-372 limits assumed): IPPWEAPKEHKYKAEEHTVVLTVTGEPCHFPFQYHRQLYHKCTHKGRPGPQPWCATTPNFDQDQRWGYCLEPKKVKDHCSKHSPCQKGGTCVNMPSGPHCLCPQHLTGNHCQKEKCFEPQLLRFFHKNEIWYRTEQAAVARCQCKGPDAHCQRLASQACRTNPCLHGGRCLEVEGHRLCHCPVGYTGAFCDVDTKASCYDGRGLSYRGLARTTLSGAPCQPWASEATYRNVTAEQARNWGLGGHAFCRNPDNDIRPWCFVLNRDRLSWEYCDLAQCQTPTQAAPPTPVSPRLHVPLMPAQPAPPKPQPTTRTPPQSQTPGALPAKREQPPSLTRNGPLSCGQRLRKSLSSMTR
Chain of Coagulation factor XII (P00748 373-615 limits assumed): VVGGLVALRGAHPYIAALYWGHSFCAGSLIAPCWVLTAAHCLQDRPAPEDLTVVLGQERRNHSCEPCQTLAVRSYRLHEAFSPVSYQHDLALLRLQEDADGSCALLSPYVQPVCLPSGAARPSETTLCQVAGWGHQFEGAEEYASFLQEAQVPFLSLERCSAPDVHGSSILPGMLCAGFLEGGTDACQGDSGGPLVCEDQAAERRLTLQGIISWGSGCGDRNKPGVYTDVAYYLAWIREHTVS
Chain of Plasma kallikrein (P03952 20-390 limits assumed): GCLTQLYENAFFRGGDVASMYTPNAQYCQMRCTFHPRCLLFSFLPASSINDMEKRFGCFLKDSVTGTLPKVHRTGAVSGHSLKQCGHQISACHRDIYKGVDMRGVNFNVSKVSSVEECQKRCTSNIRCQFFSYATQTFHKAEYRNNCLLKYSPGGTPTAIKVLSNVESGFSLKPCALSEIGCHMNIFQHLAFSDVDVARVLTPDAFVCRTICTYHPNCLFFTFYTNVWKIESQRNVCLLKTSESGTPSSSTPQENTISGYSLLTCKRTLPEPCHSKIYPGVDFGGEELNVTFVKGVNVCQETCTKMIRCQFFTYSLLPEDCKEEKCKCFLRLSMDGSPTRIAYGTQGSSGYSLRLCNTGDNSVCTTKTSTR
Chain of Plasma kallikrein (P03952 391-638 limits assumed): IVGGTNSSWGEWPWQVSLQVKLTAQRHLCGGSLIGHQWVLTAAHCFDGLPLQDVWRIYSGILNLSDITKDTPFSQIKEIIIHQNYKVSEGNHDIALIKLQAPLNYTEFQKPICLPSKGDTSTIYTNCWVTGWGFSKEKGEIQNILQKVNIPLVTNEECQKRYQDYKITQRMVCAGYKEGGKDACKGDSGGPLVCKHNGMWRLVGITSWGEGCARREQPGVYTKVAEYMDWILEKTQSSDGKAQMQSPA
Chain of Coagulation factor XI (P03951 19-387 limits assumed): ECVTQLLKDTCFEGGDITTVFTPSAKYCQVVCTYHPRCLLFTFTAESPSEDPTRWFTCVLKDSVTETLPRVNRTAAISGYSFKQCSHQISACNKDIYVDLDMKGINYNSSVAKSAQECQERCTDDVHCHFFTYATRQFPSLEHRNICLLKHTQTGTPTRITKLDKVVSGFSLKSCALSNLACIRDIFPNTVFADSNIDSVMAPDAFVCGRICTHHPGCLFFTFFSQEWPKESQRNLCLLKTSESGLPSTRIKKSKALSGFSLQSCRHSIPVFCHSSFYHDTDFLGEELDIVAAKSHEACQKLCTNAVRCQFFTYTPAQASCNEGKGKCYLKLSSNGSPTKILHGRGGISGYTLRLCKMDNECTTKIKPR
Chain of Coagulation factor XI (P03951 388-625 limits assumed): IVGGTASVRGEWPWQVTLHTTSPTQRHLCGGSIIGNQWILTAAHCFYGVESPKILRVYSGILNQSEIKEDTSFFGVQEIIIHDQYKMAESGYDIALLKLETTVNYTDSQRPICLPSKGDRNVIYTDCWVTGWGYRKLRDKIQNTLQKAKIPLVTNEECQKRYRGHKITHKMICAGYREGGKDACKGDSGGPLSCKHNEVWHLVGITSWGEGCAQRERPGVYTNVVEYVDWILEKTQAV

Structure (SMILES): COC(=O)c1ccc2oc(C(=O)[C@H](Cc3ccccc3)NC(=O)Cn3c(-c4cccc(OC)c4)ncc(N)c3=O)nc2c1
pKi (Chymase): 8.32
bioavailability [1]: 20%
Selectivity ratio [2]: 80
Selectivity ratio [3]: 200

Structure (SMILES): O=C(N[C@H](C(=O)c1nc2ccccc2o1)C1CC1)O[C@@H](CC1CCCCC1)C(=O)N1CCOCC1
Selectivity ratio (Homo sapiens [4]): > 100
Selectivity ratio (Homo sapiens [5]): > 100
Selectivity ratio (Homo sapiens [6]): > 100

Structure (SMILES): CC(C)[C@H](NC(=O)[C@H](CC1CCCCC1)NC(=O)N[C@H](C)c1ccc(Br)cc1)C(=O)N[C@@H](CCCNC(=N)N)C(=O)c1nccs1
pIC50 (Coagulation factor X): 5.57
pIC50 (Prothrombin): 6.01
pIC50 (Coagulation factor XI): 8.00

Structure (SMILES): CC[C@H](NC(=O)[C@@H]1C[C@@H](OCc2ccccc2)CN1C(=O)[C@@H](NC(=O)[C@@H](NC(=O)c1cnccn1)C(C)C)C(C)C)C(=O)c1nnc(-c2ccccc2)o1
pKi [7]: 4.46

Structure (SMILES): O=C(C1=NOC(COCc2ccccc2)C1)[C@@H]1CCCN1C(=O)[C@@H]1CCCN1C(=O)OCc1ccccc1 (some centres undefined)
pKi [10]: 8.92

Structure (SMILES): CC(C)C[C@H](NC(=O)OCc1ccccc1)C(=O)N[C@@H](CC(C)C)C(=O)N[C@@H](Cc1ccccc1)C(=O)c1nccs1
inhibition [11]: 54%

Structure (SMILES): CCC[C@H](NC(=O)C1(NC(=O)c2ccc(N(C)C)cc2)CCCCC1)C(=O)c1nnc(-c2ccco2)o1
pIC50 (Osteoclast): 6.89

Structure (SMILES): CSCCC(N)C(=O)c1ccccn1 (racemic)
pIC50 [12]: 4.80

Structure (SMILES): CC(C)C[C@H](NC(=O)OC(C)(C)C)C(=O)N[C@@H](CC(C)C)C(=O)c1ncc[nH]1
inhibition [11]: 77%

Structure (SMILES): NC(N)=NCCC[C@H](NC(=O)CNC(=O)[C@@H](CCCN=C(N)N)NS(=O)(=O)Cc1ccccc1)C(=O)c1nccs1
pIC50 (Coagulation factor XII): 7.30
pIC50 (Plasma kallikrein): 7.85

The next lines start with results.

pKi [8]: < 3.05
pKi [9]: < 3.52
pIC50 (PC-3): 6.70
Structure (SMILES): Cc1ccc(S(=O)(=O)N[C@@H](CC(=O)NCC(C)(C)C)C(=O)N[C@@H](C)C(=O)N[C@@H](CC(C)C)C(=O)c2nnc(-c3ccccc3)o2)cc1

pIC50 (Platelet): 7.52
Structure (SMILES): CN[C@H](Cc1ccccc1)C(=O)N1CCC[C@H]1C(=O)N[C@@H](CCCNC(=N)N)C(=O)c1nc2ccc(C(=O)O)cc2s1
ED50 (Canis familiaris): 0.1 mg/kg

pKi (Chymase): 7.64
Structure (SMILES): COC(=O)c1ccc2oc(C(=O)[C@H](Cc3ccccc3)NC(=O)Cn3c(-c4ccc(F)cc4)ncc(N)c3=O)nc2c1

pKi [13]: 5.74
Structure (SMILES): Nc1nc(N)c(CCCC(c2ccc(C(=O)N[C@@H](CCC(=O)O)C(=O)O)cc2)C(O)c2nc3ccccc3o2)c(=O)[nH]1 (some centres undefined)

pIC50 (Coagulation factor X): 6.42
pIC50 (Prothrombin): 4.72
pIC50 (Coagulation factor VII): 6.52
Structure (SMILES): CC[C@H](C)[C@H](NC(=O)[C@@H](Cc1ccccc1)NS(=O)(=O)Cc1ccccc1)C(=O)N[C@@H](CCCN=C(N)N)C(=O)c1nccs1

pKi [7]: 4.80
Structure (SMILES): CC[C@@H](C=O)NC(=O)[C@@H]1C[C@@H](OCc2ccccc2)CN1C(=O)[C@@H](NC(=O)[C@@H](NC(=O)c1cnccn1)C(C)C)C(C)C (Pyrazinecarbonyl-VV[Hyp](Bn)[Abu]-aldehyde)
